Experiments:
Format in all cases: in vivo
Conditions in all cases: 250 g/ha, evaluated after 13 days, 100=total damage to plant, 0=no damage to plant
[1] = test system: Amaranthus palmeri (AMAPA); assay: Pre-emergence biological efficacy, AMAPA
Method: (§1) Seeds of weeds and/or crops were sown in standard soil in pots (Amaranthus palmeri (AMAPA), Lolium perenne (LOLPE), Euphorbia heterophylla (EPHHL), Setaria faberi (SETFA), Echinochloa crus-galli (ECHCG), Ipomoea hederacea (IPOHE)). After cultivation for one day under controlled conditions in a glasshouse (at 24/19° C., day/night; 16 hours light), the plants were sprayed with an aqueous spray solution derived from the formulation of the technical active ingredient in a small amount of acetone and a special solvent and emulsifier mixture referred to as IF50 (11.12% Emulsogen EL360 TM+44.44% N-methylpyrrolidone+44.44% Dowanol DPM glycol ether), to create a 50 g/l solution which was then diluted using 0.2% Genapol X080 as diluent to give the desired final dose of test compound. Compounds were applied at a 250 g/ha unless otherwise stated. The test plants were then grown under controlled conditions in the glasshouse (at 24/18° C., day/night; 15 hours light; 50% humidity) and watered twice daily. After 13 days the test was evaluated (100=total damage to plant; 0=no damage to plant).

Setaria faberi (SETFA) [2] = assay: Pre-emergence biological efficacy, SETFA
Method: as §1

[3] = test system: Amaranthus palmeri (AMAPA); assay: Post-emergence biological efficacy, AMAPA
Method: as §1, with “(AMAPA), (CHEAL), Euphorbia heterophylla (EPHHL), Ipomoea hederacea (IPOHE), Eleusine indica (ELEIN),” for “(AMAPA),”, “Digitaria sanguinalis (DIGSA),” for “Euphorbia heterophylla (EPHHL),”, “(ECHCG)).” for “(ECHCG), Ipomoea hederacea (IPOHE)).”, “14 days” for “one day”, “XO80” for “X080”

Eleusine indica (ELEIN) = assay: Post-emergence biological efficacy, ELEIN
Method: as §1, with “(AMAPA), (CHEAL), Euphorbia heterophylla (EPHHL), Ipomoea hederacea (IPOHE), Eleusine indica (ELEIN),” for “(AMAPA),”, “Digitaria sanguinalis (DIGSA),” for “Euphorbia heterophylla (EPHHL),”, “(ECHCG)).” for “(ECHCG), Ipomoea hederacea (IPOHE)).”, “14 days” for “one day”, “XO80” for “X080”

[4] = test system: Ipomoea hederacea (IPOHE); assay: Pre-emergence biological efficacy, IPOHE
Method: as §1

[5] = test system: Euphorbia heterophylla (EPHHL); assay: Post-emergence biological efficacy, EPHHL
Method: as §1, with “(AMAPA), (CHEAL), Euphorbia heterophylla (EPHHL), Ipomoea hederacea (IPOHE), Eleusine indica (ELEIN),” for “(AMAPA),”, “Digitaria sanguinalis (DIGSA),” for “Euphorbia heterophylla (EPHHL),”, “(ECHCG)).” for “(ECHCG), Ipomoea hederacea (IPOHE)).”, “14 days” for “one day”, “XO80” for “X080”

[6] = test system: Digitaria sanguinalis (DIGSA); assay: Post-emergence biological efficacy, DIGSA
Method: as §1, with “(AMAPA), (CHEAL), Euphorbia heterophylla (EPHHL), Ipomoea hederacea (IPOHE), Eleusine indica (ELEIN),” for “(AMAPA),”, “Digitaria sanguinalis (DIGSA),” for “Euphorbia heterophylla (EPHHL),”, “(ECHCG)).” for “(ECHCG), Ipomoea hederacea (IPOHE)).”, “14 days” for “one day”, “XO80” for “X080”

Lolium perenne (LOLPE) [7] = assay: Post-emergence biological efficacy, LOLPE
Method: as §1, with “(AMAPA), (CHEAL), Euphorbia heterophylla (EPHHL), Ipomoea hederacea (IPOHE), Eleusine indica (ELEIN),” for “(AMAPA),”, “Digitaria sanguinalis (DIGSA),” for “Euphorbia heterophylla (EPHHL),”, “(ECHCG)).” for “(ECHCG), Ipomoea hederacea (IPOHE)).”, “14 days” for “one day”, “XO80” for “X080”

[8] = test system: Ipomoea hederacea (IPOHE); assay: Post-emergence biological efficacy, IPOHE
Method: as §1, with “(AMAPA), (CHEAL), Euphorbia heterophylla (EPHHL), Ipomoea hederacea (IPOHE), Eleusine indica (ELEIN),” for “(AMAPA),”, “Digitaria sanguinalis (DIGSA),” for “Euphorbia heterophylla (EPHHL),”, “(ECHCG)).” for “(ECHCG), Ipomoea hederacea (IPOHE)).”, “14 days” for “one day”, “XO80” for “X080”

[9] = test system: Euphorbia heterophylla (EPHHL); assay: Pre-emergence biological efficacy, EPHHL
Method: as §1

CHEAL = assay: Post-emergence biological efficacy, CHEAL
Method: as §1, with “(AMAPA), (CHEAL), Euphorbia heterophylla (EPHHL), Ipomoea hederacea (IPOHE), Eleusine indica (ELEIN),” for “(AMAPA),”, “Digitaria sanguinalis (DIGSA),” for “Euphorbia heterophylla (EPHHL),”, “(ECHCG)).” for “(ECHCG), Ipomoea hederacea (IPOHE)).”, “14 days” for “one day”, “XO80” for “X080”

[10] = test system: Echinochloa crus-galli (ECHCG); assay: Post-emergence biological efficacy, ECHCG
Method: as §1, with “(AMAPA), (CHEAL), Euphorbia heterophylla (EPHHL), Ipomoea hederacea (IPOHE), Eleusine indica (ELEIN),” for “(AMAPA),”, “Digitaria sanguinalis (DIGSA),” for “Euphorbia heterophylla (EPHHL),”, “(ECHCG)).” for “(ECHCG), Ipomoea hederacea (IPOHE)).”, “14 days” for “one day”, “XO80” for “X080”

Lolium perenne (LOLPE) [11] = assay: Pre-emergence biological efficacy, LOLPE
Method: as §1

Setaria faberi (SETFA) [12] = assay: Post-emergence biological efficacy, SETFA
Method: as §1, with “(AMAPA), (CHEAL), Euphorbia heterophylla (EPHHL), Ipomoea hederacea (IPOHE), Eleusine indica (ELEIN),” for “(AMAPA),”, “Digitaria sanguinalis (DIGSA),” for “Euphorbia heterophylla (EPHHL),”, “(ECHCG)).” for “(ECHCG), Ipomoea hederacea (IPOHE)).”, “14 days” for “one day”, “XO80” for “X080”

[13] = test system: Echinochloa crus-galli (ECHCG); assay: Pre-emergence biological efficacy, ECHCG
Method: as §1

| Compound | damage to plant, AMAPA [1] | damage to plant, SETFA (Setaria faberi (SETFA) [2]) | damage to plant, AMAPA [3] | damage to plant, ELEIN (Eleusine indica (ELEIN)) | damage to plant, IPOHE [4] | damage to plant, EPHHL [5] | damage to plant, DIGSA [6] | damage to plant, LOLPE (Lolium perenne (LOLPE) [7]) | damage to plant, IPOHE [8] | damage to plant, EPHHL [9] | damage to plant, CHEAL (CHEAL) | damage to plant, ECHCG [10] | damage to plant, LOLPE (Lolium perenne (LOLPE) [11]) | damage to plant, SETFA (Setaria faberi (SETFA) [12]) | damage to plant, ECHCG [13] |
| --- | --- | --- | --- | --- | --- | --- | --- | --- | --- | --- | --- | --- | --- | --- | --- |
| CCOC(=O)C[C@H](C)OC(=O)c1cc(-c2ncc(C(F)(F)F)cc2Cl)ccc1Cl [Compound 1-525 (S-enantiomer), [(1S)-3-ethoxy-1-methyl-3-oxo-propyl] 2-chloro-5-[3-chloro-5-(trifluoromethyl)-2-pyridyl]-benzoate] | 100 | 100 | 100 | 100 | 70 | 100 | 100 | 100 | 90 | 100 | 100 | 100 | 100 | 100 | 100 |
| COC(=O)C[C@H](C)OC(=O)c1nc(-c2ncc(C(F)(F)F)cc2Cl)c(F)cc1Cl [Compound 11-524 (S-enantiomer), [(1S)-3-methoxy-1-methyl-3-oxo-propyl] 3-chloro-6-[3-chloro-5-(trifluoromethyl)-2-pyridyl]-5-fluoro-pyridine-2-carboxylate] | 100 | 100 | 100 | 100 | 100 | 100 | 100 | 100 | 100 | 100 | 100 | 100 | 100 | 100 | 100 |
| CCOC(=O)C[C@@H](C)OC(=O)c1cc(-c2ncc(C(F)(F)F)cc2Cl)c(F)cc1Cl [Compound 2-525 (R-enantiomer), [(1R)-3-ethoxy-1-methyl-3-oxo-propyl] 2-chloro-5-[3-chloro-5-(trifluoromethyl)-2-pyridyl]-4-fluoro-benzoate] | 100 | 100 | 100 | 100 | 60 | 100 | 100 | 100 | 100 | 100 | 100 | 100 | 100 | 100 | 100 |
| CCOC(=O)C[C@H](C)OC(=O)c1cc(-c2ncc(C(F)(F)F)cc2Cl)c(F)cc1Cl [Compound 2-525 (S-enantiomer), [(1S)-3-ethoxy-1-methyl-3-oxo-propyl] 2-chloro-5-[3-chloro-5-(trifluoromethyl)-2-pyridyl]-4-fluoro-benzoate] | 100 | 100 | 100 | 100 | 100 | 100 | 100 | 100 | 100 | 100 | 100 | 100 | 100 | 100 | 100 |
| CCOC(=O)CC(C)OC(=O)c1cc(-c2ncc(C(F)(F)F)cc2Cl)ccc1Cl (stereo not drawn) [Compound 1-525, (3-ethoxy-1-methyl-3-oxo-propyl) 2-chloro-5-[3-chloro-5-(trifluoromethyl)-2-pyridyl]benzoate] | 100 | 100 | 100 | 100 | 70 | 100 | 100 | 100 | 80 | 100 | 100 | 100 | 100 | 100 | 100 |

Source: patent US20250212879A1, “HERBICIDAL COMPOUNDS” (SYNGENTA CROP PROTECTION AG, priority 2022, published 2025)
